From ChEMBL document CHEMBL5113517, “Structure-Based Design, Optimization, and Evaluation of Potent Stabilized Peptide Inhibitors Disrupting MTDH and SND1 Interaction” (J Med Chem, 2022)
Active and inactive are the calls of the source. No cut-off for these calls is given here. Peptide text beside a SMILES is read from it.

Experiments:
[1] = Drug uptake in human MDA-MB-231 cells assessed as increase in colocalization at 10 uM by confocal microscopy; format: ADME, cell-based; details: mda-mb-231, 10 µM
MDA-MB-231 [2] = test: Inhibition of cell migration in human MDA-MB-231 cells measured after 24 to 48 hrs by wound healing assay; format: functional, cell-based; details: time 24-48 hrs
[3] = Stability of the compound in mouse serum measured after 3 to 7 days by HPLC analysis; format: ADME, cell-free; details: time 3-7 day
MDA-MB-468 [4] = test: Cytotoxicity against human MDA-MB-468 cells assessed as reduction in cell viability at 6.25 to 200 uM incubated for 72 hrs by CCK8 assay; format: functional, cell-based; details: dose 6.25-200 µM
[5] = Drug uptake in human MDA-MB-231 cells assessed as increase in cell penetration at 10 uM incubated for 12 hrs by flow cytometry method; format: ADME, cell-based; details: mda-mb-231, 12 h
MDA-MB-231 [6] = test: Cell cycle arrest in human MDA-MB-231 cells assessed as accumulation at G0/G1 phase at 50 uM measured after 48 hrs by flow cytometric analysis flow cytometry analysis (reference value: 58.28 %); format: functional
MDA-MB-231 [7] = test: Cytotoxicity against human MDA-MB-231 cells assessed as reduction in cell viability at 100 uM incubated for 72 hrs by CCK8 assay; format: functional
[8] = Toxicity in mouse RBC assessed as induction of hemolysis at 200 uM measured after 1 hr by microplate reader assay; format: cell-based; details: erythrocyte
MDA-MB-231 [9] = test: Cytotoxicity against human MDA-MB-231 cells assessed as reduction in cell viability incubated for 72 hrs by CCK8 assay; format: functional, cell-based
MDA-MB-231 [10] = test: Cell cycle arrest in human MDA-MB-231 cells assessed as accumulation at S phase at 100 uM measured after 48 hrs by flow cytometric analysis flow cytometry analysis (reference value: 25.81%); format: functional
MCF-10A = test: Cytotoxicity against human MCF-10A cells assessed as reduction in cell viability at 6.25 to 200 uM incubated for 72 hrs by CCK8 assay; format: toxicity, cell-based; details: dose 6.25-200 µM
MDA-MB-231 [11] = test: Inhibition of GST-tagged MTDH (364 ro 582 residues)/His-tagged SND1 (16 to 339 residues) interaction in human MDA-MB-231 cells measured after 12 hrs by co-immunoprecipitation assay; format: cell-based
MDA-MB-231 [12] = test: Cell cycle arrest in human MDA-MB-231 cells assessed as accumulation at G0/G1 phase at 100 uM measured after 48 hrs by propidium iodide based flow cytometry analysis (reference value: 57.81 %); format: functional
[13] = Binding affinity to MTDH /His-SND1 (unknown origin) expressed in Escherichia coli BL21(DE3) assessed as dissociation constant by fluorescence polarization assay; set-up: species or system Homo sapiens
MDA-MB-231 [14] = test: Cell cycle arrest in human MDA-MB-231 cells assessed as accumulation at G2/M phase at 100 uM measured after 48 hrs by flow cytometric analysis flow cytometry analysis (reference value: 16.38 %); format: functional
MDA-MB-231 [15] = test: Cell cycle arrest in human MDA-MB-231 cells assessed as accumulation at S phase at 50 uM measured after 48 hrs by flow cytometric analysis flow cytometry analysis (reference value: 25.88%); format: functional
MDA-MB-231 [16] = test: Cell cycle arrest in human MDA-MB-231 cells assessed as accumulation at G2/M phase at 50 uM measured after 48 hrs by flow cytometric analysis flow cytometry analysis (reference value: 15.84 %); format: functional
MDA-MB-468 [17] = test: Cytotoxicity against human MDA-MB-468 cells assessed as reduction in cell viability incubated for 72 hrs by CCK8 assay; format: functional, cell-based
MDA-MB-231 [18] = test: Cytotoxicity against human MDA-MB-231 cells assessed as reduction in cell viability at 6.25 to 200 uM incubated for 72 hrs by CCK8 assay; format: functional, cell-based; details: dose 6.25-200 µM
Homo sapiens = species: Homo sapiens; test: Inhibition of GST-tagged MTDH (364 ro 582 residues)/His-tagged SND1 (16 to 339 residues) (unknown origin) interaction measured after 12 hrs by pull down assay
MDA-MB-231 [19] = test: Antiproliferative activity against human MDA-MB-231 cells assessed as growth inhibition at 100 uM in presence of paclitaxel; format: functional, cell-based

| Drug uptake [1] | Drug uptake [5] | Structure (SMILES) | Activity (MDA-MB-231 [6]) | Activity (MDA-MB-231 [10]) | Activity (MDA-MB-231 [12]) | Kd [13] | Activity (MDA-MB-231 [14]) | Activity (MDA-MB-231 [15]) | Activity (MDA-MB-231 [16]) | also measured |
| --- | --- | --- | --- | --- | --- | --- | --- | --- | --- | --- |
| Active | Active | CC(C)[C@H](NC(=O)[C@H](Cc1c[nH]c2ccccc12)NC(=O)[C@H](CC(N)=O)NC(=O)CNC(=O)[C@H](Cc1c[nH]c2ccccc12)NC(=O)[C@H](CCC(=O)O)NC(=O)[C@H](CCC(=O)O)NC(=O)[C@@H]1CNC(=O)[C@@H](NC(=O)[C@H](Cc2c[nH]c3ccccc23)NC(=O)[C@@H](N)CC(=O)O)CC(=O)N[C@@H](C)C(=O)N2CCC[C@H]2C(=O)N1)C(=O)N[C@@H](CC(=O)O)C(=O)N[C@@H](CCC(=O)O)C(N)=O | 69.94% | 8.32% | 81.56% | 74.1 nM | 10.12% | 18.5% | 11.55% | inhibition (MDA-MB-231 [2]): Active; Stability [3]: Stable; Activity (MDA-MB-468 [4]): Active; Activity (MDA-MB-231 [7]): 60%; Activity [8]: Non-Toxic; Activity (MDA-MB-231 [9]): Active; Activity (MCF-10A): Non-Toxic; inhibition (MDA-MB-231 [11]): Active; Activity (MDA-MB-468 [17]): Active; Activity (MDA-MB-231 [18]): Active; inhibition (Homo sapiens): Active; Activity (MDA-MB-231 [19]): Active |
| Active | Active | CC(C)[C@H](NC(=O)[C@H](Cc1c[nH]c2ccccc12)NC(=O)[C@H](CC(N)=O)NC(=O)CNC(=O)[C@H](Cc1c[nH]c2ccccc12)NC(=O)[C@H](CCC(=O)O)NC(=O)[C@H](CCC(=O)O)NC(=O)[C@H](C)NC(=O)[C@@H]1CCCN1C(=O)[C@H](C)NC(=O)[C@H](CC(N)=O)NC(=O)[C@H](Cc1c[nH]c2ccccc12)NC(=O)[C@@H](N)CC(=O)O)C(=O)N[C@@H](CC(=O)O)C(=O)N[C@@H](CCC(=O)O)C(=O)O (H-DWNAPAEEWGNWVDE-OH) | 60.42% | 22.66% | 61.79% | 56.5 nM | 15.55% | 22.86% | 16.7% |  |
